Patent US20210268450A1, “COMPOSITION USEFUL FOR PRODUCTION OF ACIDIC GAS SEPARATION MEMBRANE” (SUMITOMO CHEMICAL COMPANY, LIMITED, priority 2018, published 2021)

Assay: acid dissociation constant in a 25° C. aqueous solution (titration method)
Type: physicochemical
Settings: for acid dissociation constant in a 25° C. aqueous solution 1: first constant; for acid dissociation constant 2: second constant
Description: This acid dissociation constant is a value as measured by a known titration method based on the definition of Bronsted (Shinpan Bunseki Kagaku Jikken, Nihon Bunseki Kagakukai Hokkaido Shibu ed., pp. 219 to 237).

acid dissociation constant in a 25° C. aqueous solution 1	acid dissociation constant 2	acid dissociation constant 3 (third constant)	acid dissociation constant in a 25° C. aqueous solution (single constant)	SMILES
9.3	9.8			Oc1cccc(O)c1 [Weakly acidic organic compound 1, resorcinol]
8.0	9.2	14.0		Oc1cc(O)cc(O)c1 [Weakly acidic organic compound 2, phloroglucinol]
			12.9	CS(=O)(=O)Nc1ccccc1 [Weakly acidic organic compound 4, N-phenylmethanesulfonamide]
9.0	11.6			Oc1cccc(O)c1O [Weakly acidic organic compound 5, pyrogallol]

SMILES	acid dissociation constant in a 25° C. aqueous solution 1	acid dissociation constant 2	acid dissociation constant 3 (third constant)	acid dissociation constant in a 25° C. aqueous solution (single constant)
Oc1ccccc1O [Weakly acidic organic compound 6, catechol]	9.1	12.1		
